We go through one compound from US20180008592A1, “TREATMENT OF UREMIC PRURITUS” (TREVI THERAPEUTICS, INC., priority 2016, published 2018).

For this data set, the system named is hemodialysis patients with uremic pruritus who completed the Example 2 study. Kind of data set: Phase 2/3 Open Label Extension Study (up to 24 weeks). Type of data set: in vivo, human. The source says:
This clinical study was a Phase 2/3 Open Label Extension Study of the randomized, double-blind, 3-parallel arm, placebo controlled dose ranging study described in Example 2. All those subjects who were randomized, and then completed Example 2 study, were eligible to participate in the Extension Study.
The primary endpoint was a description of the overall incidence and nature of Treatment-Emergent AEs (TEAES) with the secondary endpoint a description of the incidence and nature of TEAEs during Treatment Weeks 4-24. Exploratory efficacy endpoints related to collecting data on the PRO instruments (NRS, Skindex-10, Itch MOS Sleep, HADS, PADS), the same instruments evaluated in Example 2.
Of the 373 patients that were randomized to the study of Example 2, 184 subjects both completed the study of Example 2 and enrolled into Extension Study. 167 subjects who enrolled into Extension Study entered the Treatment Period of the study and were exposed to nalbuphine HCl ER tablet administration and are the basis of the study safety population analysis. 17 subjects who were enrolled in the Extension were never dosed, they were categorized as screen failures and they are not part of the analysis.
Patients in Extension Study were titrated over a dose range of 30 mg QD to 120 mg BID based on tolerability and efficacy. The selected dose range was based on Example 2 study whereby patients were titrated from a 30 mg QD dose either to 60 mg BID or a 120 mg BID dose. The highest dose proposed was 120 mg BID (240 mg daily dose), and was well below the highest recommended daily treatment of 160 mg IV (equivalent to 960 mg oral) for the current marketed product.
The study duration for each patient was up to 26 weeks, with up to 24 weeks on study drug. The Extension Study consisted of a Treatment Period (that was followed by a Washout Safety Follow-up Period) and an Observation Period. Patients either entered directly into a drug Treatment Period (NRS >2) or a no-drug Observation Period (NRS ≦2) based on their reported NRS scores on the first Visit (Visit 1a). For up to 12 Extended Screening weeks, patients in the no-drug Observation Period could have also transitioned into the drug Treatment Period if their NRS increased to NRS >2. All patients entering the Treatment Period, whether immediately upon study entry or following a period of time in the Observation Period, were titrated to a dose ranging between 30 mg up to 120 mg BID, the highest dose tested in Example 2.
The total study duration for any individual patient was up to 26 weeks. […] For patients who entered the Treatment Period from the Observation Period, the total amount of time spent in the combined two periods of the study could not exceed 24 weeks.

[1] abbreviates: safety population, titrated 30 mg QD to 120 mg BID, up to 24 weeks, most pronounced with baseline NRS ≧7.

With `Cl.Oc1ccc2c3c1O[C@H]1[C@@H](O)CC[C@@]4(O)[C@@H](C2)N(CC2CCC2)CC[C@]314` [Nalbuphine, 17-(cyclobutylmethyl)-4,5α-epoxymorphinian-3,6α, 14-triol, hydrochloride], under setting [1], the “Mean Skindex-10 by week” value is on record as “decreased from baseline to all measured time points” and the “Mean worst itch NRS by week” value is reported as “decreased from baseline to all measured time points”. Further, the safety findings result (treatment period up to 24 weeks) is “consistent with the known safety profile of nalbuphine”. Besides, the “tolerance to the anti-pruritic effects” value (up to 24 weeks) was “do not develop a tolerance”.
